Reference: US10239957B2, “Peptide containing conjugates for dual molecular delivery of oligonucleotides” (Merck Sharp & Dohme Corp., priority 2013, dated 2019)
Where no end group is shown, it is not given here. [ ]: non-standard residue; d: D form.

Tested on: CTNNB1
Experiment: In vitro DMD assay: mRNA silencing enhancement by peptide conjugates after siRNA-IV treatment
Format: cell-based
Settings: primary mouse hepatocytes, siRNA-IV 125 nM baseline
Procedure: Cryopreserved primary Mouse hepatocytes (Bioreclamation, LLC) were placed into Collagen Type I coated 96-well plates at 25,000 cells per well in serum-containing InVitroGRO CP media (Bioreclamation, LLC) and allowed 5 hours to attach. Media was replaced with InVitroGRO HI media and cells were treated with siRNA-IV at 125 nM [siRNA] for 1 hour. Media was replaced with InVitroGRO HI media and cells were treated for approximately 16 hours with experimental Peptide conjugates at various concentrations to establish a dose-response curve. Peptide conjugates were washed out after 16 hours with InVitroGRO HI media and cells allowed to incubate for an additional 24 hours. Cells were then lysed and mRNA expression of the siRNA target was measured by RT-qPCR (Applied Biosystems Taqman reagents). mRNA silencing activity of each Peptide conjugate was expressed as an enhancement above the baseline activity of 125 nM siRNA-IV alone with respect to the untreated cells and all siRNA target Ct values were normalized to PPIB mRNA for each well (dddCt) and summarized.
The structure of TGN-S-S-peptide is shown below and the activity data is listed in Table 5 (siRNA-IV concentration was kept at […]).

Substance	In vitro dddCt (vs. baseline SCE dose) (Targeted peptide dose 8 nM)	In vitro dddCt (vs. baseline SCE dose) (Targeted peptide dose 40 nM)	In vitro dddCt (vs. baseline SCE dose) (Targeted peptide dose 200 nM)	In vitro dddCt (vs. baseline SCE dose) (Targeted peptide dose 1000 nM)	In vitro dddCt (vs. baseline SCE dose) (Targeted peptide dose 5000 nM)
TGN-S-S-SEQ ID NO: 1761 (D) ([dC]G[dL][dF]G[dE][dI][dE][dE][dL][dI][dE][dE]G[dL][dE][dN][dW][dI][dD][dW]G[dN]G; not fully specified (residue 1); also: disulfide to TGN peptide via Cys1; listed as Homo sapiens)	0.08	−0.25	−0.22	−0.07	−0.11
TGN-S-S-SEQ ID NO: 1762 (D) ([dC]G[dL][dF]G[dE][dI][dE][dE][dL][dI][dE][dE]G[dL][dE][dN][dF][dI][dD][dW]G[dN]G; not fully specified (residue 1); also: disulfide to TGN peptide via Cys1; listed as Homo sapiens)	−0.07	0.03	−0.17	−0.39	−0.08
TGN-S-S-SEQ ID NO: 1763 (D) ([dC]G[dL][dF]G[dE][dI][dE][dE][dL][dI][dE][dE]G[dL][dE][dN][dL][dW][dD][dW]G[dN]G; not fully specified (residue 1); also: disulfide to TGN peptide via Cys1; listed as Homo sapiens)	−0.13	−0.67	−1.26	−1.44	−1.29
TGN-S-S-SEQ ID NO: 1764 (D) ([dC]G[dL][dF]G[dE][dI][dE][dE][dL][dI][dE][dE]G[dL][dE][dN][dL][dV][dD][dW]G[dN]G; not fully specified (residue 1); also: TGN conjugated via disulfide at Cys1; listed as Homo sapiens)	−0.03	−0.41	−0.78	−0.62	−0.75
TGN-S-S-SEQ ID NO: 1765 (D) ([dC]G[dL][dF]G[dE][dI][dE][dE][dL][dI][dE][dE]G[dL][dE][dN][dL][dI][dE][dW]G[dN]G; not fully specified (residue 1); also: TGN conjugated via disulfide at Cys1; listed as Homo sapiens)	−0.04	−0.38	−0.88	−1.23	−1.23
TGN-S-S-SEQ ID NO: 1772 (D) ([dC]G[dL][dF][dE][dA][dL][dL][dE][dL][dL][dE][dS][dL][dW][dE][dL][dL][dL][dE][dA]G[dY]G; not fully specified (residue 1); also: TGN conjugated via disulfide at Cys1; listed as Homo sapiens)	0.03	−0.15	−0.15	−0.17	−0.08
TGN-S-S-SEQ ID NO: 1775(D) ([dC]G[dL][dF][dE][dA][dL][dL][dE][dL][dL][dE][dS][dL][dW][dE][dL][dL][dL][dE][dA]; not fully specified (residue 1); also: TGN conjugated via disulfide at Cys1; listed as Homo sapiens)	−0.1	−0.14	−0.14	−0.11	−0.37
TGN-S-S-SEQ ID NO: 1777 (D) ([dC]G[dN][dF]G[dE][dI][dE][dE][dL][dI][dE][dE]G[dL][dE][dN][dL][dI][dD][dW]G[dN]G; not fully specified (residue 1); also: TGN conjugated via disulfide at Cys1; listed as Homo sapiens)	−0.18	0.28	−0.13	−0.13	0.09
TGN-S-S-SEQ ID NO: 1778 (D) ([dC]G[dL][dF][dA][dE][dI][dE][dE][dL][dI][dE][dE]G[dL][dE][dN][dL][dI][dD][dW]G[dN]G; not fully specified (residue 1); also: TGN conjugated via disulfide at Cys1; listed as Homo sapiens)	−0.38	−0.57	−0.91	−1.54	–
TGN-S-S-SEQ ID NO: 1779(D) ([dC]G[dL][dF][dE][dE][dI][dE][dE][dL][dI][dE][dE]G[dL][dE][dN][dL][dI][dD][dW]G[dN]G; not fully specified (residue 1); also: TGN conjugated via disulfide at Cys1; listed as Homo sapiens)	−0.18	−0.24	−1.29	−1.52	−1.51
TGN-S-S-SEQ ID NO: 1780 (D) ([dC]G[dL][dF]G[dE][dI][dA][dE][dL][dI][dE][dE]G[dL][dE][dN][dL][dI][dD][dW]G[dN]G; not fully specified (residue 1); also: TGN conjugated via disulfide at Cys1; listed as Homo sapiens)	−0.11	−1.05	−2.83	0.18	−3.2
TGN-S-S-SEQ ID NO: 1781 (D) ([dC][dE][dL][dF]G[dE][dI][dE][dE][dL][dI][dE][dE]G[dL][dE][dN][dL][dI][dD][dW]G[dN]G; not fully specified (residue 1); also: TGN conjugated via disulfide at Cys1; listed as Homo sapiens)	−0.01	−0.02	0.03	−0.01	0.01
TGN-S-S-SEQ ID NO: 1782 (D) ([dC][dA][dL][dF]G[dE][dI][dE][dE][dL][dI][dE][dE]G[dL][dE][dN][dL][dI][dD][dW]G[dN]G; not fully specified (residue 1); also: TGN conjugated via disulfide at Cys1; listed as Homo sapiens)	−0.14	0.43	−0.17	−0.21	–
TGN-S-S-SEQ ID NO: 1784 (D) ([dC]G[dW][dF]G[dE][dI][dE][dE][dL][dI][dE][dE]G[dL][dE][dN][dL][dI][dD][dW]G[dN]G; not fully specified (residue 1); also: TGN conjugated via disulfide at Cys1; listed as Homo sapiens)	0.07	−0.22	−0.57	−1.01	−0.81
TGN-S-S-SEQ ID NO: 1785 (D) ([dC]G[dL][dF]G[dE][dL][dE][dE][dL][dI][dE][dE]G[dL][dE][dN][dL][dI][dD][dW]G[dN]G; not fully specified (residue 1); also: TGN conjugated via disulfide at Cys1; listed as Homo sapiens)	−0.1	−0.44	−1.68	0.84	−2.03
TGN-S-S-SEQ ID NO: 1786 (D) ([dC]G[dL][dF]G[dE][dI][dE][dE][dL][dW][dE][dE]G[dL][dE][dN][dL][dI][dD][dW]G[dN]G; not fully specified (residue 1); also: TGN conjugated via disulfide at Cys1; listed as Homo sapiens)	0.17	0.13	0.06	0.06	0.18
TGN-S-S-SEQ ID NO: 1793 (D) ([dC]G[dL][dL]G[dE][dI][dE][dE][dL][dI][dE][dE]G[dL][dE][dN][dL][dI][dD][dW]G[dN]G; not fully specified (residue 1); also: TGN conjugated via disulfide at Cys1; listed as Homo sapiens)	−0.02	−1.04	−2.36	−2.75	−2.65
